Source: patent US8859225B2, “Systems and methods of voltage-gated ion channel assays” (The Charles Stark Draper Laboratory, Inc., priority 2006, dated 2014)

System: cardiac cell potassium channels
Assay: potassium ion-selective optical ion sensor fluorescence assay of electrically paced cardiac myocyte cells (hERG screening)
Type: cell-based
Conditions: 2.0 μM Haloperidol; myocyte cells paced at 1.0 Hz; FIG. 10D in comparison to FIG. 10B
Text: In one particular example, a cell assay system built in accordance with principles of the invention can be used to conduct hERG screening assays. The hERG gene regulates the activity of potassium ion channels in cardiac myocyte cells. In a functioning heart, electrical voltages are generated by modified myocytes in the sinoatrial and atrioventricular nodes (pacemaking nodes). Such voltages are propagated through the heart by the action of various voltage-gated ion channels that alter the voltage gradients across cardiac cell membranes by exchanging sodium, calcium, and potassium ions across the cell membrane. Various agents are known to interfere with the hERG gene, or otherwise block potassium channel operation, resulting in arrhythmia and potentially heart failure. […]
To test for potassium channel interference, cardiac myocyte cells are provided in a monolayer adhered to a biological sample holder. […] As potassium ions are passed into and out of the myocytes by potassium channels, the fluorescence of the potassium selective optical ion sensor varies in a detectable fashion.
FIGS. 10A and 10B are graphs charting the intensity of potassium ion-selective optical ion sensor fluorescence monitoring the activity of myocyte cells in a biological sample holder. […] The graph of FIG. 10A includes normalized raw fluorescence measurements, both observed and filtered. […]

## O=C(CCCN1CCC(O)(c2ccc(Cl)cc2)CC1)c1ccc(F)cc1 [Haloperidol]
  reduction of intensity of fluorescence oscillations at 1.0 Hz (change of extracellular potassium concentration per beat): 30%
